Two compounds from patent US8034787B2, “Enzyme-cleavable prodrug compounds” (Medarex, Inc., priority 1998, dated 2011) can be followed below.

By TGI is commonly meant the reduction of tumour growth relative to the control group. A higher TGI goes with a stronger effect on the tumour. By IC50 is commonly meant the midpoint of a concentration-inhibition curve. A higher IC50 goes with lower potency.

A short description of data set [1]: Aggregation, Centricon ultrafiltration. In kind it is physicochemical. To be noted: 17.4 μMol/ml in distilled water, 2 hr at 1500 g; listed as Dox.
For another data set, the system named is MX-1 tumors. In kind it is in vivo, mice. The method, then: MX-1 tumors which are moderately doxorubicin-sensitive, human breast carcinoma xenografts, were implanted subcutaneously (s.c.) and mice were weighed and tumors were measured (by caliper) at least once a week prior to start of dosing (Day 0), then twice a week during the study. Immediately before the start of dosing (Study Day −2 to Day 0), mice were randomized to various groups based on the weight of the tumors. Mice were euthanized after the tumors reached a cutoff weight of 1.5 g (cancer endpoint). Studies were terminated at Day 60.

The subject of the next data set is LS174T tumor. The text has this: Statistically significant from vehicle control group: *: p<0.05; **: p<0.01 (unpaired t-test).
In another data set the test system is HL-60 cells. The data set is described as follows: 3H-thymidine incorporation proliferation assay. It counts as cell-based. The settings on record: Homo sapiens, HL-60, 24 hours. The method, then: Promyelocytic leukemia cells, HL-60, were cultured in RPMI media containing 10% heat inactivated fetal calf serum (FCS). On the day of the study, the cells were collected, washed and resuspended at a concentration of 0.5×10^6 cells/ml in RPMI containing 10% FCS. 100 μl/well of cell suspension was added to 96 well plates. […] Finally, 10 μl of a 100 μCi/ml ^3H-thymidine was added per well and the plates were incubated for 24 hours. The plates were harvested using a 96 well Harvester (Packard Instruments) and counted on a Packard Top Count counter. Four parameter logistic curves were fitted to the ^3H-thymidine incorporation as a function of drug molarity using Prism software to determine IC50 values.
(Incorporation of labelled thymidine or its analogues reports DNA synthesis.)

Data set [2] in a line: Acute toxicity of N-capped prodrugs, intravenous bolus in mice. In kind it is in vivo. To be noted: intravenous bolus of 250 mg/kg (Dox-HCl eq.), three to five mice per group.
For another data set, the system named is LS174T tumors. The data set is described as follows: LS174T xenograft, five weekly intravenous doses (Example 17).
A short description of data set [3]: Single dose Maximum Tolerated Dose (SD-MTD) study.
Setting [4] is: 3 mg/kg, 5 doses, one every 7 days.

Where two headings read alike, the source gives them in different places.

`COc1cccc2c1C(=O)c1c(O)c3c(c(O)c1C2=O)C[C@@](O)(C(=O)CO)C[C@@H]3O[C@H]1C[C@H](N)[C@H](O)[C@H](C)O1` [Doxorubicin]: the “3000 MWCO Filt.” value in data set [1] was 81%. In addition, in the data set with MX-1 tumors (setting [4]), the “MDS” value stood at 27.3 ± 2.6 days; the “Survival: MDS Extension over controls” value was 33 ± 13%; the “TGD” value amounted to 6.8 ± 2.7 days; the “Tumor Weight (mg, Day 18)” value is reported as 906 ± 150 mg. The same compound came in with a TGI in the data set with MX-1 tumors (3 mg/kg, 5 doses, one every 7 days, over control at Day 18) of 22 ± 16%. For the same compound, the “tolerability of dose regimens” value with MX-1 tumors (mouse, in vivo) is reported as “very well tolerated”. In addition, in the data set on LS174T tumor (setting [4]), the “MDS” value stood at 25.8 ± 2.5 days; the “MDS Extension over controls” value is listed as 3 ± 13%; the “Mean Tumor Weight (mg, Day 19)” value is 1035 ± 180 mg; the “TGD” value is 0.8 ± 3.1 days. The same compound yielded a TGI in the data set on LS174T tumor (setting [4]) of 0%. In addition, the “efficacy in inhibiting LS-174T tumor and extending survival” value with LS174T tumor (doxorubicin 3 mg/kg) is on record as “ineffective”. Further, the “tolerability of dose regimens” value with LS174T tumor (mouse, in vivo) is given as “very well tolerated”. In the data set on HL-60 cells, it took 0.075 µM to reach half-maximal inhibition (IC50).

In the case of `COc1cccc2c1C(=O)c1c(O)c3c(c(O)c1C2=O)C[C@@](O)(C(=O)CO)C[C@@H]3O[C@H]1C[C@H](NC(=O)[C@H](CC(C)C)NC(=O)[C@H](C)NC(=O)[C@H](CC(C)C)NC(=O)CCNC(=O)CCC(=O)O)[C@H](O)[C@H](C)O1` [Suc-βAla-Leu-Ala-Leu-Dox, succinyl-β-Ala-Leu-Ala-Leu-Dox], in data set [2], the “survival up to 8 days” value is given as “all animals survived”. Further, in the data set with MX-1 tumors (71 mg/kg group, after Day 46), the “mice with up to 20% weight loss” value was “one out of ten”. Moreover, the “tolerability of dose regimens” value is reported as “very well tolerated” in the data set on MX-1 tumors (all dose regimens, 5 doses, one every 7 days) and “very well tolerated” with LS174T tumor (all dose regimens, Q7D×5). In addition, the “tolerability under repeat-dose levels” value in the data set with LS174T tumors was “safe and well-tolerated”. Further, the “mortality by Day 35” value in data set [3] (75 mg/kg dose group) is on record as 40%. Moreover, the “acute toxicity within 24 hours” value in data set [3] (50, 75 or 100 mg/kg intravenous bolus) was “no acute toxicity”. In addition, the “body weight loss (of initial weight)” value in data set [3] (75 and 100 mg/kg dose groups) is on record as above 20%. The “SD-MTD (mg/kg Dox =)” value in data set [3] (doxorubicin equivalents) is 28 mg/kg Dox =. Moreover, in data set [3] (preliminary observations), the “toxicity profile compared with doxorubicin” value is “lack of evidence of characteristic GI-toxicity, cardiotoxicity and myleosuppression of doxorubicin”.
